For orientation: inhibition means the drop in the measured response relative to a control, in per cent. Low values mean a response near the control, high ones a response far below the control. In general, pIC50 refers to the IC50 on a negative log10 scale, so that one unit is a factor of ten. Read a low pIC50 as a large IC50.

pIC50: −log10 of the molar value.

The target in the assay is MAPK14 (human) (UniProt Q16539). The experiment in a line: Inhibition of MAPK14 Kinase Activity by PHAS-I Assay. Conditions: for inhibition: concentration not given here.
Chain of MAPK14 (human) (Q16539 whole entry, looked up): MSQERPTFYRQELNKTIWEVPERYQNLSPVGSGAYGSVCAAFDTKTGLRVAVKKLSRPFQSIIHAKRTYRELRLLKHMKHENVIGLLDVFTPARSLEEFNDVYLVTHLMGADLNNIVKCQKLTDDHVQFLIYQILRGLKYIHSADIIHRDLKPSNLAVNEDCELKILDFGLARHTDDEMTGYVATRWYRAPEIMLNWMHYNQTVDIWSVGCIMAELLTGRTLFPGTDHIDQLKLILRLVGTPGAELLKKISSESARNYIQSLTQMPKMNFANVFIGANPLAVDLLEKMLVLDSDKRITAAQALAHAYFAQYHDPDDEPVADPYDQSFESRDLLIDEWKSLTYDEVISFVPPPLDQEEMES

With `O=C(NCCCc1[nH]nc(-c2ccc(F)cc2)c1-c1ccncc1)N1CCOCC1`, the inhibition turned out to be 82%. Same read-out and setting: under `CC(C)S(=O)(=O)NCCCc1[nH]nc(-c2ccc(F)cc2)c1-c1ccncc1` stands 84%. `Cc1c(-c2ccncc2)c(-c2ccc(F)cc2)nn1CC(=O)Nc1ccccc1C(=O)OC(C)C` had an inhibition of 88%. The same measure, in the same setting: under `Cc1c(-c2ccncc2)c(-c2ccc(F)cc2)nn1CC(=O)N[C@@H](C)c1cccc2ccccc12` stands 74%; under `CCOC(=O)c1cc(-c2ccc(NC(=O)Cn3nc(-c4ccc(F)cc4)c(-c4ccncc4)c3C)cc2)oc1C`, 87%; under `Cc1c(-c2ccncc2)c(-c2ccc(F)cc2)nn1CC(=O)Nc1cc(F)cc(F)c1`, 75%. The same measure, in the same setting: the value for `CCS(=O)(=O)NCCCc1[nH]nc(-c2ccc(F)cc2)c1-c1ccncc1` was 95%; that for `Cc1c(-c2ccncc2)c(-c2ccc(F)cc2)nn1CC(=O)Nc1cc(C(F)(F)F)cc(C(F)(F)F)c1` was 79%; that for `Cc1c(-c2ccncc2)c(-c2ccc(F)cc2)nn1CC(=O)N(Cc1ccco1)CC(C)C` was 48%. Regarding `Cc1c(-c2ccncc2)c(-c2ccc(F)cc2)nn1CC(=O)Nc1ccccc1F`, the inhibition turned out to be 86%. Still for that read-out and setting: the value for `Cc1c(-c2ccncc2)c(-c2ccc(F)cc2)nn1CC(=O)Nc1ccccc1C(C)(C)C` was 84%. Turning to `COc1ccccc1C(=O)N1CCC(c2[nH]nc(-c3ccc(F)cc3)c2-c2ccncc2)CC1`, the pIC50 is > 7.00. Compound `O=S(=O)(NCc1[nH]nc(-c2ccc(F)cc2)c1-c1ccncc1)c1cc(Br)c(Br)s1` returned an inhibition of 77%. In the case of `Clc1ccc(-c2n[nH]c(N3CCSCC3)c2-c2ccncc2)cc1`, the pIC50 is 6.11. `Cc1c(-c2ccncc2)c(-c2ccc(F)cc2)nn1CC(=O)Nc1ccccc1C(C)C`: the inhibition was found to be 94%.

On to `CCc1cccc(CC)c1NC(=O)Cn1nc(-c2ccc(F)cc2)c(-c2ccncc2)c1C`, for which the inhibition was 70%. Same read-out and setting: the value for `CCN(Cc1c(F)cccc1Cl)C(=O)Cn1nc(-c2ccc(F)cc2)c(-c2ccncc2)c1C` was 46%; that for `COc1ccc(S(=O)(=O)NCCCc2[nH]nc(-c3ccc(F)cc3)c2-c2ccncc2)cc1` was 71%. Same read-out and setting: the value for `C=CCOC(=O)NCCc1[nH]nc(-c2ccc(F)cc2)c1-c1ccncc1` was 86%. The same measure, in the same setting: the value for `Cc1c(-c2ccncc2)c(-c2ccc(F)cc2)nn1CC(=O)N1CCSC1` was 63%; that for `Cc1c(-c2ccncc2)c(-c2ccc(F)cc2)nn1CC(=O)Nc1ccc(-n2ccc(C(F)(F)F)n2)cc1` was 87%. Take `O=C(NCCCc1[nH]nc(-c2ccc(F)cc2)c1-c1ccncc1)c1ccncc1`: the inhibition was determined as 77%. The same measure, in the same setting: under `O=C(NCCCc1[nH]nc(-c2ccc(F)cc2)c1-c1ccncc1)c1ccccn1` stands 69%; under `O=C(NCCCc1[nH]nc(-c2ccc(F)cc2)c1-c1ccncc1)c1cnc2ccccc2n1`, 68%; under `Cc1c(-c2ccncc2)c(-c2ccc(F)cc2)nn1CC(=O)NC1Cc2ccccc2C1`, 69%. Same read-out and setting: the value for `Cc1c(-c2ccncc2)c(-c2ccc(F)cc2)nn1CC(=O)Nc1ccc(OCc2ccccc2)cc1` was 82%.

As for `O=C(NCc1[nH]nc(-c2ccc(F)cc2)c1-c1ccncc1)c1cc(Cl)cc(Cl)c1`, the pIC50 was 5.57.

As to `Cc1c(-c2ccncc2)c(-c2ccc(F)cc2)nn1CC(=O)Nc1ccc(C(F)(F)F)cc1`, the inhibition turned out to be 81%. The compound `COc1cccc(C(=O)N[C@@H](C)c2[nH]nc(-c3ccc(F)cc3)c2-c2ccncc2)c1` had a negative logarithm of the IC50 (pIC50) of 5.86. The compound `Cc1c(-c2ccncc2)c(-c2ccc(F)cc2)nn1CC(=O)N1CCCC1` displayed an inhibition of 73%. Still for that read-out and setting: the value for `Cc1c(-c2ccncc2)c(-c2ccc(F)cc2)nn1CC(=O)Nc1ccccc1SCCCc1ccccc1` was 80%. In the case of `COc1ccccc1C(=O)NCCCc1[nH]nc(-c2ccc(F)cc2)c1-c1ccncc1`, the inhibition turned out to be 68%. As for `COc1ccc(NC(=O)NCCCc2[nH]nc(-c3ccc(F)cc3)c2-c2ccncc2)c(OC)c1`, the inhibition was found to be 83%. On the same count and under the same terms, under `CCCN(CCC)CC(C)NC(=O)Cn1nc(-c2ccc(F)cc2)c(-c2ccncc2)c1C` (centres undefined) stands 17%; under `Cc1c(-c2ccncc2)c(-c2ccc(F)cc2)nn1CC(=O)Nc1ccccc1Cc1ccccc1`, 92%. Same read-out and setting: under `O=C(NCc1[nH]nc(-c2ccc(F)cc2)c1-c1ccncc1)c1cc(Cl)ccc1F` stands 73%; under `Cc1c(-c2ccncc2)c(-c2ccc(F)cc2)nn1CC(=O)NCC(=O)OC(C)(C)C`, 34%.

As to `Cc1c(-c2ccncc2)c(-c2ccc(F)cc2)nn1CC(=O)Nc1cccc(SC(F)(F)F)c1`, the inhibition stood at 82%. Still for that read-out and setting: under `Cc1c(-c2ccncc2)c(-c2ccc(F)cc2)nn1CC(=O)N(C)Cc1ccccc1` stands 73%; under `Cc1c(-c2ccncc2)c(-c2ccc(F)cc2)nn1CC(=O)Nc1ccccc1C(=O)NC(C)c1ccccc1` (centres undefined), 86%. The compound `COc1ccc(NC(=O)NCCCc2[nH]nc(-c3ccc(F)cc3)c2-c2ccncc2)cc1` showed an inhibition of 82%. The same measure, in the same setting: the value for `CCOC(=O)NCCCc1[nH]nc(-c2ccc(F)cc2)c1-c1ccncc1` was 94%. `CC(=O)N[C@@H](C)c1[nH]nc(-c2ccc(F)cc2)c1-c1ccncc1` showed a pIC50 of 6.34. For `CCCNC(=O)NCCCc1[nH]nc(-c2ccc(F)cc2)c1-c1ccncc1`, the inhibition worked out at 88%. The same measure, in the same setting: under `COCCN(C)C(=O)Cn1nc(-c2ccc(F)cc2)c(-c2ccncc2)c1C` stands 35%; under `Cc1c(-c2ccncc2)c(-c2ccc(F)cc2)nn1CC(=O)NC1CCSC1=O` (centres undefined), 69%. The compound `C=CCNC(=O)NCCCc1[nH]nc(-c2ccc(F)cc2)c1-c1ccncc1` yielded an inhibition of 87%. In turn, `Cc1c(-c2ccncc2)c(-c2ccc(F)cc2)nn1CC(=O)Nc1ccc(Cl)nc1` displayed an inhibition of 94%. On the same count and under the same terms, the value for `O=C(NCCCc1[nH]nc(-c2ccc(F)cc2)c1-c1ccncc1)c1ccc(I)cc1` was 66%; that for `Cc1c(-c2ccncc2)c(-c2ccc(F)cc2)nn1CC(=O)Nc1ccccc1C(=O)NC1CCCCC1` was 87%; that for `CCOC(=O)CN(Cc1ccccn1)C(=O)Cn1nc(-c2ccc(F)cc2)c(-c2ccncc2)c1C` was 34%.

`COc1ccc2nc(NC(=O)Cn3nc(-c4ccc(F)cc4)c(-c4ccncc4)c3C)sc2c1` came in with an inhibition of 86%. `Clc1ccc(-c2n[nH]c(SCOC3CCCCO3)c2-c2ccncc2)cc1` (centres undefined): the pIC50 is 6.96. `Cc1c(-c2ccncc2)c(-c2ccc(F)cc2)nn1CC(=O)Nc1ccccc1` displayed an inhibition of 85%. In turn, `CCCOC(=O)NCCCc1[nH]nc(-c2ccc(F)cc2)c1-c1ccncc1` returned an inhibition of 90%. On the same count and under the same terms, the value for `COC(=O)C(NC(=O)Cn1nc(-c2ccc(F)cc2)c(-c2ccncc2)c1C)C(C)C` (centres undefined) was 82%. Still for that read-out and setting: the value for `Cc1c(-c2ccncc2)c(-c2ccc(F)cc2)nn1CC(=O)Nc1cc([N+](=O)[O-])cc([N+](=O)[O-])c1` was 90%. `COC(=O)[C@@H](Cc1cn(C)cn1)NC(=O)Cn1nc(-c2ccc(F)cc2)c(-c2ccncc2)c1C`: the inhibition worked out at 19%. As for `Cc1c(-c2ccncc2)c(-c2ccc(F)cc2)nn1CC(=O)NC1CC1`, the inhibition is 75%. Same read-out and setting: under `CCOC(=O)C[C@H](NC(=O)Cn1nc(-c2ccc(F)cc2)c(-c2ccncc2)c1C)C(=O)OCC` stands 37%; under `CC(C)COC(=O)NCCCc1[nH]nc(-c2ccc(F)cc2)c1-c1ccncc1`, 76%. On the same count and under the same terms, the value for `COc1cccc(CC(=O)NCCCc2[nH]nc(-c3ccc(F)cc3)c2-c2ccncc2)c1` was 92%; that for `COc1ccc(S(=O)(=O)NCCCc2[nH]nc(-c3ccc(F)cc3)c2-c2ccncc2)cc1OC` was 74%; that for `Cc1c(-c2ccncc2)c(-c2ccc(F)cc2)nn1CC(=O)N1CCCCC1` was 78%.

The compound `COc1cccc(NC(=O)NCCc2[nH]nc(-c3ccc(F)cc3)c2-c2ccncc2)c1` displayed an inhibition of 68%.

In turn, `Cc1c(-c2ccncc2)c(-c2ccc(F)cc2)nn1CC(=O)NC1CCN(Cc2ccccc2)C1` (centres undefined) returned an inhibition of 73%. The same measure, in the same setting: under `CCCC(CCC)NC(=O)Cn1nc(-c2ccc(F)cc2)c(-c2ccncc2)c1C` stands 77%. Still for that read-out and setting: under `Cc1c(-c2ccncc2)c(-c2ccc(F)cc2)nn1CC(=O)Nc1ccccc1Cl` stands 90%. Still for that read-out and setting: the value for `O=C(NCCCc1[nH]nc(-c2ccc(F)cc2)c1-c1ccncc1)N1CCCC1` was 86%; that for `CC(=O)N1CCN(C(=O)Cn2nc(-c3ccc(F)cc3)c(-c3ccncc3)c2C)CC1` was 81%; that for `Cc1c(-c2ccncc2)c(-c2ccc(F)cc2)nn1CC(=O)NC1CCCCCC1` was 82%. For the compound `O=C(NCCCc1[nH]nc(-c2ccc(F)cc2)c1-c1ccncc1)c1ccc(F)c(F)c1F`, the inhibition came out at 80%.

`O=S(=O)(NCc1[nH]nc(-c2ccc(F)cc2)c1-c1ccncc1)c1ccc2ccccc2c1` showed a pIC50 of 6.55. For the compound `COc1ccc(CCN(CCC#N)C(=O)Cn2nc(-c3ccc(F)cc3)c(-c3ccncc3)c2C)cc1OC`, the inhibition is 72%. Consider `Cc1c(-c2ccncc2)c(-c2ccc(F)cc2)nn1CC(=O)N(CCC#N)CC1CCCO1` (centres undefined), for which the inhibition was found to be 58%.

In the case of `Cc1cccc(C)c1NC(=O)NCCc1[nH]nc(-c2ccc(F)cc2)c1-c1ccncc1`, the inhibition turned out to be 56%. Still for that read-out and setting: the value for `O=S(=O)(NCCCc1[nH]nc(-c2ccc(F)cc2)c1-c1ccncc1)c1ccccc1F` was 77%.

`CCCS(=O)(=O)NCCCc1[nH]nc(-c2ccc(F)cc2)c1-c1ccncc1` yielded an inhibition of 92%. `Cc1c(-c2ccncc2)c(-c2ccc(F)cc2)nn1CC(=O)N1Cc2ccsc2CC1c1ccc(Cl)cc1` (centres undefined) registered an inhibition of 33%. For the compound `CCCc1n[nH]c(-c2cccc([N+](=O)[O-])c2)c1-c1ccncc1`, the pIC50 was 4.92.

Turning to `CCN(CC)C(=O)NCCCc1[nH]nc(-c2ccc(F)cc2)c1-c1ccncc1`, the inhibition turned out to be 89%. Still for that read-out and setting: under `Cc1c(-c2ccncc2)c(-c2ccc(F)cc2)nn1CC(=O)Nc1c(Cl)cccc1Cl` stands 89%.

Regarding `O=C(NCCCc1[nH]nc(-c2ccc(F)cc2)c1-c1ccncc1)C1CC1`, the inhibition amounted to 77%. Same read-out and setting: under `COCC(C)NC(=O)Cn1nc(-c2ccc(F)cc2)c(-c2ccncc2)c1C` (centres undefined) stands 60%.
